Several values for one entry are separate records, joined by “and”; a condition that tells them apart may be missing. Equal entries are not always repeated. Entries after “also recorded” stand apart in the source; their conditions may differ. Where two headings read alike, the source gives them in different places.
What was measured:
IKZF2 [1] = assay: Degradation of IKZF2 in primary PBMCs, cynomolgus monkey (FIG. 3); assay type: cell-based
Source text: FIG. 3. is a bar graph showing the degradation of IKZF2 in primary PBMCs obtained from rabbit, dog, pig, cynomolgus monkey and human, and in primary splenocytes of mouse and rat and treated with Compound I-57.

IKZF2 [2] = assay: IKZF2 degradation in primary cynomolgus monkey PBMCs; assay type: cell-based; details: primary monkey PBMCs in vitro
Source text: (§1) Although the specific transcriptional targets of IKZF2 remain to be defined, IKZF2 binds to and represses transcription from the IL-2 promoter region (Baine 2013). […] Finally, an in vitro assay recapitulating hallmarks of T cell dysfunction/exhaustion, by sequential TCR stimulation of isolated primary human T cells, was used to test the hypothesis that […] would rescue the exhausted phenotype and enhance Teff cell activity. […] In addition to IKZF1, other known cereblon substrates including translation termination factor G1 to S phase transition 1 (GSPT1) are not degraded by I-57 (FIG. 1).
I-57 mediated degradation of IKZF2 was assessed in primary PBMCs obtained from rabbit, dog, pig, cynomolgus monkey, and human, and in primary splenocytes of mouse and rat. […] Species-specificity due to species specific alteration CRBN primary structure have previously been described with other compounds known to interact with the CRBN ubiquitin ligase complex to elicit protein specific degradation (Krönke et al, 2015).

[3] = system: IL-2 mRNA and soluble protein in Jurkat cells; assay: IL-2 expression in TCR-stimulated Jurkat cells; assay type: cell-based; details: Homo sapiens; Jurkat cells upon TCR stimulation
Source text: as §1

[4] = Repeated daily oral dose PK in cynomolgus monkey; assay type: in vivo; details: unbound; for Cmax / AUC(0-t): plasma, po; for AUC(0-t): read-out: AUC0-24
Description: (§2) The PK/PD relationship of I-57 was further examined in cynomolgus monkeys after repeated daily oral doses of 0.1 and 3 mg/kg. In this study, a cohort of animals were initially immunized with an antigen-adjuvant mixture (KLH/Squalene). The experiment was designed to assess the effect of I-57 exposure, and the resulting IKZF2 degradation, on immune response during immunization to test the hypothesis that IKZF2 degradation would result in increased proliferation of stimulated T-cells. In the experiment, daily I-57 oral treatment was initiated 5 days after immunization. An immunization booster dose was administered on day 15. I-57 plasma concentration and IKZF2 expression (as determined by flow cytometry) in FOXP3+ T cells from PBMCs were determined (FIG. 9A and FIG. 9B).

peripheral T cells = assay: Immunization response (KLH/Squalene) in cynomolgus monkey: anti-KLH IG and Ki67 T cells; assay type: in vivo
Description: as §2
In order to measure the impact of I-57 treatment on the immune response following immunization, serum anti-KLH IG levels were measured longitudinally, and levels of T cell activation were measured in PBMCs by flow cytometry. […] In contrast, the proportion of proliferative peripheral T cells (denoted by Ki67 staining) was increased in the highest dose group (3 mg/kg) in the recall response phase, compared to immunization alone.

[5] = In vivo non-clinical PK profile, all species tested; set-up: species or system mouse, rat, dog and cynomolgus monkey
Description: (§3) The in vivo non-clinical PK profile of I-57 was investigated in mouse, rat, dog and cynomolgus monkey using I-57 free base. […] After p.o. administration, the absorption of I-57 was rapid with peak blood concentration (Tmax) occurring between 1 and 4 hours. […] In high dose PK and toxicology studies with I-57 the exposures in mouse, rat and monkey increased with dose.

[6] = In vivo non-clinical PK, mouse
Description: as §3
(§4) The binding to plasma protein of I-57 in vitro was moderate in all species, with an observed difference between rodents (73% in mouse, 76% in rat) and non-rodents (52% in dog and monkey, 54% in human). Blood-to-plasma ratios were in the range of 0.7-1.8 (human 1.1-1.3). […] Based on results with non-radiolabeled I-57 in the dog, a significant amount of unchanged I-57 was renally eliminated (˜20% of dose).

plasma protein = assay: Plasma protein binding in vitro, dog; assay type: in vitro ADME
Source text: as §4

[7] = Blood-to-plasma ratio, human; assay type: in vitro ADME
Source text: as §4

hERG = hERG (Homo sapiens, UniProt Q12809); assay: In vitro hERG inhibition; assay type: biochemical
hERG, sequence (Q12809 whole entry): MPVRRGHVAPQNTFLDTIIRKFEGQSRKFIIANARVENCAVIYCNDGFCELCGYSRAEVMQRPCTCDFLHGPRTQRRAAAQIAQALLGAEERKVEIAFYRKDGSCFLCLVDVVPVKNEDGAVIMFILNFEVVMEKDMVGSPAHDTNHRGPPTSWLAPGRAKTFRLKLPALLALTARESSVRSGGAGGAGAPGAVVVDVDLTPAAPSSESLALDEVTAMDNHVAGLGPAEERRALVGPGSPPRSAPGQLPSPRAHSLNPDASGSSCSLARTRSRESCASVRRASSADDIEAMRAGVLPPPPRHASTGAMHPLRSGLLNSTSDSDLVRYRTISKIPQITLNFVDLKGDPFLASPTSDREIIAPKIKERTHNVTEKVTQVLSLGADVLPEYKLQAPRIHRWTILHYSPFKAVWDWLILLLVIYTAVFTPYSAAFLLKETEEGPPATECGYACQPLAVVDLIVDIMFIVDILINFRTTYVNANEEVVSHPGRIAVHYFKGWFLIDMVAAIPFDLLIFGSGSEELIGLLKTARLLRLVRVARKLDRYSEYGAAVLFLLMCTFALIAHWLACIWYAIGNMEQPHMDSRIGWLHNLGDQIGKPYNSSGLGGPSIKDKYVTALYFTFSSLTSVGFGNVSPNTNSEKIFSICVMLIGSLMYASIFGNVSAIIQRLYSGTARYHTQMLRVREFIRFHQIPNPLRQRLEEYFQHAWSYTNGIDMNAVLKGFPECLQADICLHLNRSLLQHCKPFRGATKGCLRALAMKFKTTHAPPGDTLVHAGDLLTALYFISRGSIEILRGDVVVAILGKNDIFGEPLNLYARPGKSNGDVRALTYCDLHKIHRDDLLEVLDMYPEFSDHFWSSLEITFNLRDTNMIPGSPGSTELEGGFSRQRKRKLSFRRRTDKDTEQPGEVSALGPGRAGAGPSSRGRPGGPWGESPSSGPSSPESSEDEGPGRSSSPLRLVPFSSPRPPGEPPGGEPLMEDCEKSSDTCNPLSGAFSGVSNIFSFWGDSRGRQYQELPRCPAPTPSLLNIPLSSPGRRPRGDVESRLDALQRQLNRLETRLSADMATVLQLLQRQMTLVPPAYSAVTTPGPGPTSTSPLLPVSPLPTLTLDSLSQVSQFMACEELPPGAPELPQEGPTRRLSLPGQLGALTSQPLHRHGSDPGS
Description: The risk of possible QTc interval prolongation at the starting dose is therefore considered low. QT prolongation may become clinically significant during escalation but are not anticipated to be dose limiting until doses at or above 640 mg. Monitoring and other measures to mitigate potential risk of arrhythmia is addressed in Example 3 below.

[8] = 0.1 mg/kg/day, Day 5, Group 2 (only I-57), 0.1 mg/kg/day oral
[9] = 0.1 mg/kg/day, Day 5, Group 4 (I-57 + KLH + adjuvant), 0.1 mg/kg/day oral
[10] = 0.1 mg/kg/day, Day 29, Group 2 (only I-57), 0.1 mg/kg/day oral
[11] = 0.1 mg/kg/day, Day 29, Group 4 (I-57 + KLH + adjuvant), 0.1 mg/kg/day oral
[12] = 3 mg/kg/day, Day 5, Group 5 (I-57 + KLH + adjuvant), 3 mg/kg/day oral
[13] = 3 mg/kg/day, Day 29, Group 5 (I-57 + KLH + adjuvant), 3 mg/kg/day oral
[14] = Day 5, Group 2 (only I-57), 0.1 mg/kg/day oral
[15] = Day 5, Group 4 (I-57 + KLH + adjuvant), 0.1 mg/kg/day oral
[16] = Day 5, Group 5 (I-57 + KLH + adjuvant), 3 mg/kg/day oral
[17] = Day 29, Group 2 (only I-57), 0.1 mg/kg/day oral
[18] = Day 29, Group 4 (I-57 + KLH + adjuvant), 0.1 mg/kg/day oral
[19] = Day 29, Group 5 (I-57 + KLH + adjuvant), 3 mg/kg/day oral
[20] = i.v. administration, all species tested, I-57 free base

Q: Which “degradation of IKZF2” value (IKZF2 [1]) does the source give for O=C1CCC(N2Cc3cc(C4CCN(Cc5ccccc5)CC4)ccc3C2=O)C(=O)N1 (stereo not drawn) [Compound I-57, 3-(5-(1-benzylpiperidin-4-yl)-1-oxoisoindolin-2-yl)piperidine-2,6-dione] here?
A: The value was “degradation was observed”.

Q: What about the “degradation of IKZF2” value (IKZF2 [2]) of the same compound?
A: The value was “potent degradation; also recorded: Degradation was observed”.

Q: What about the AC50 [3] of the same compound?
A: The AC50 was ~4 nM and ~0.0017 µg/mL.

Q: What about the Cmax [4, 8] of the same compound?
A: Its Cmax is 7.1 ng/mL.

Q: What about the AUC(0-t) [4, 8] of the same compound?
A: The AUC(0-t) was 56.8 ng·h/mL.

Q: And the Cmax [4, 9]?
A: Its Cmax is 11 ng/mL.

Q: What about the AUC(0-t) [4, 9] of the same compound?
A: Its AUC(0-t) is 63.5 ng·h/mL.

Q: And the Cmax [4, 10]?
A: The Cmax was 13.1 ng/mL.

Q: What about the AUC(0-t) [4, 10] of the same compound?
A: The AUC(0-t) was 78.1 ng·h/mL.

Q: And the Cmax [4, 11]?
A: The Cmax was 18 ng/mL.

Q: What about the AUC(0-t) [4, 11] of the same compound?
A: The AUC(0-t) was 96.4 ng·h/mL.

Q: What about the Cmax [4, 12] of the same compound?
A: Its Cmax is 523 ng/mL.

Q: What about the AUC(0-t) [4, 12] of the same compound?
A: The AUC(0-t) was 2840 ng·h/mL.

Q: What about the Cmax [4, 13] of the same compound?
A: Its Cmax is 504 ng/mL.

Q: And the AUC(0-t) [4, 13]?
A: The AUC(0-t) was 3460 ng·h/mL.

Q: What about the AUC0-24/D [4, 14] of the same compound?
A: The AUC0-24/D was 567 (ng · h/mL)/(mg/kg).

Q: And the Cmax/D [4, 14]?
A: The Cmax/D was 71.0 (ng/mL)/(mg/kg).

Q: And the AUC0-24/D [4, 15]?
A: Its AUC0-24/D is 634 (ng · h/mL)/(mg/kg).

Q: What about the Cmax/D [4, 15] of the same compound?
A: Its Cmax/D is 110 (ng/mL)/(mg/kg).

Q: What about the AUC0-24/D [4, 16] of the same compound?
A: Its AUC0-24/D is 946 (ng · h/mL)/(mg/kg).

Q: And the Cmax/D [4, 16]?
A: Its Cmax/D is 175 (ng/mL)/(mg/kg).

Q: And the AUC0-24/D [4, 17]?
A: The AUC0-24/D was 782 (ng · h/mL)/(mg/kg).

Q: What about the Cmax/D [4, 17] of the same compound?
A: The Cmax/D was 131 (ng/mL)/(mg/kg).

Q: What about the AUC0-24/D [4, 18] of the same compound?
A: Its AUC0-24/D is 965 (ng · h/mL)/(mg/kg).

Q: What about the Cmax/D [4, 18] of the same compound?
A: Its Cmax/D is 180 (ng/mL)/(mg/kg).

Q: What about the AUC0-24/D [4, 19] of the same compound?
A: The AUC0-24/D was 1150 (ng · h/mL)/(mg/kg).

Q: What about the Cmax/D [4, 19] of the same compound?
A: The Cmax/D was 169 (ng/mL)/(mg/kg).

Q: What about the “proportion of proliferative peripheral T cells (Ki67 staining)” value (peripheral T cells; 3 mg/kg, recall response phase, compared to immunization alone) of the same compound?
A: Its value is “increased”.

Q: What about the “Anti-IgG titers elicited by the immunization (serum anti-KLH IG)” value (peripheral T cells; KLH/Squalene immunization, daily I-57) of the same compound?
A: The value was “not further enhanced”.

Q: What about the “blood clearance (CL)” value [5, 20] of the same compound?
A: Its value is “low to moderate”.

Q: And the “terminal half-life (T½)” value [5, 20]?
A: The value was “moderate”.

Q: What about the “volume of distribution (Vss)” value [5, 20] of the same compound?
A: The value was “moderate to high”.

Q: What about the Tmax ([5]; mouse, rat, dog, cynomolgus monkey, blood, po, p.o. administration, read-out: peak blood concentration (Tmax)) of the same compound?
A: Its Tmax is 1 to 4 h.

Q: And the “dose proportionality of AUC” value ([6]; between 3 mg/kg and 100 mg/kg)?
A: The value was “roughly dose proportional”.

Q: And the bioavailability ([6]; blood, po)?
A: Its bioavailability is 53%.

Q: What about the Kp ([6]; brain, read-out: brain/plasma ratio) of the same compound?
A: The Kp was 0.07.

Q: And the “binding to plasma protein” value (plasma protein)?
A: Its value is 52%.

Q: And the blood plasma ratio [7]?
A: The blood plasma ratio was 1.1 to 1.3.

Q: What about the IC50 (hERG) of the same compound?
A: The IC50 was 7.1 µM.

From patent US20230321067A1, “DOSING REGIMEN COMPRISING 3-(1-OXOISOINDOLIN-2-YL)PIPERIDINE-2,6-DIONE DERIVATIVES” (Novartis AG, priority 2020, published 2023)
